Converted amounts (≈) assume the structure as drawn.
Columns and labels:
[1] = target: T1, Orexin receptor type 2 (Homo sapiens, UniProt O43614); assay: Antagonist activity at human orexin 2 receptor expressed in HEK293 cells assessed as inhibition of orexin-induced calcium mobilization after 60 mins by FLIPR assay; format: functional, cell-based
T1 sequence (O43614 whole entry): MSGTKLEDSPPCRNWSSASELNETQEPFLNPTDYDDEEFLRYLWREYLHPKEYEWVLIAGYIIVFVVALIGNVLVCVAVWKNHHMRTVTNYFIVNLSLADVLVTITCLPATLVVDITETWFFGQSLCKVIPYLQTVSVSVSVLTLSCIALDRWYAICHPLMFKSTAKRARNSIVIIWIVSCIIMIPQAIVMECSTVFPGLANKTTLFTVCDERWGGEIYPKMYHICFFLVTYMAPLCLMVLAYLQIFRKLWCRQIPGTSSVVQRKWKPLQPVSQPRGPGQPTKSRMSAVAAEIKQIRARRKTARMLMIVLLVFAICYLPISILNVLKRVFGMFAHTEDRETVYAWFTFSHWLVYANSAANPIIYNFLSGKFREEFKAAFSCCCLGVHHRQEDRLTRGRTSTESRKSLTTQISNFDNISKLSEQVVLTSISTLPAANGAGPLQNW

[2] = target: Voltage-gated inwardly rectifying potassium channel KCNH2 (Homo sapiens, UniProt Q12809); assay: Inhibition of human ERG
Voltage-gated inwardly rectifying potassium channel KCNH2, sequence (Q12809 whole entry): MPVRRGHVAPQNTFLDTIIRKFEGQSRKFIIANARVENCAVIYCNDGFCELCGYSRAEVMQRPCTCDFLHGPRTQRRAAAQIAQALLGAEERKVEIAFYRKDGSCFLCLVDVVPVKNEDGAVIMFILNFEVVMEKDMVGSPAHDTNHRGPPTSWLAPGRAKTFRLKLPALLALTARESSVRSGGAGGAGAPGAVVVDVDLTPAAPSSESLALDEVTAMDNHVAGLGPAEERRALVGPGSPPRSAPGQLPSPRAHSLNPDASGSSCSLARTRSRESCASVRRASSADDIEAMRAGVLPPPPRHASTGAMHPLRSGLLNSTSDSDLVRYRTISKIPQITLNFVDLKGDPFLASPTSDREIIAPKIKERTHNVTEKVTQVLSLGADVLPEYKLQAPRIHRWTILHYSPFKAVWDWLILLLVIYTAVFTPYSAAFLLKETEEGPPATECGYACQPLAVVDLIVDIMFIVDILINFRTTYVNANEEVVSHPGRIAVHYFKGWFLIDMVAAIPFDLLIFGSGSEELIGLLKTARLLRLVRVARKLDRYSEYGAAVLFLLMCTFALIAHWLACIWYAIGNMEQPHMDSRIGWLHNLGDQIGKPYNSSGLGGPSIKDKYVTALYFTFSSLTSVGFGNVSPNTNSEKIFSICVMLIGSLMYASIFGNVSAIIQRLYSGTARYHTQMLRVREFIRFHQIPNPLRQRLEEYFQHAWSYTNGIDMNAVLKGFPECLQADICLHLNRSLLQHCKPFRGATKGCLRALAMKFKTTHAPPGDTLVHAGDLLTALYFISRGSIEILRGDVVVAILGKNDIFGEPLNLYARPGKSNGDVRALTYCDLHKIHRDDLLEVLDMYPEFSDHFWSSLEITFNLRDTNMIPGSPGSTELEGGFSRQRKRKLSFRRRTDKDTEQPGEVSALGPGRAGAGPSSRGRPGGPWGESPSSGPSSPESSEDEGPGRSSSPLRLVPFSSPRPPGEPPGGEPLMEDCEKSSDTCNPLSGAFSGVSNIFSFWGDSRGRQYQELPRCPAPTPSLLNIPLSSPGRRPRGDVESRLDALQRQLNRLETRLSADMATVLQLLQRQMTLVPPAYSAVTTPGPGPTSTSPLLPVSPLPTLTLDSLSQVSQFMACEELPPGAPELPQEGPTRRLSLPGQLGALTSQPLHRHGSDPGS

[3] = target: T2, Orexin/Hypocretin receptor type 1 (Homo sapiens, UniProt O43613); assay: Antagonist activity at human orexin 1 receptor expressed in HEK293 cells assessed as inhibition of orexin-induced calcium mobilization after 60 mins by FLIPR assay; format: functional, cell-based
T2 sequence (O43613 whole entry): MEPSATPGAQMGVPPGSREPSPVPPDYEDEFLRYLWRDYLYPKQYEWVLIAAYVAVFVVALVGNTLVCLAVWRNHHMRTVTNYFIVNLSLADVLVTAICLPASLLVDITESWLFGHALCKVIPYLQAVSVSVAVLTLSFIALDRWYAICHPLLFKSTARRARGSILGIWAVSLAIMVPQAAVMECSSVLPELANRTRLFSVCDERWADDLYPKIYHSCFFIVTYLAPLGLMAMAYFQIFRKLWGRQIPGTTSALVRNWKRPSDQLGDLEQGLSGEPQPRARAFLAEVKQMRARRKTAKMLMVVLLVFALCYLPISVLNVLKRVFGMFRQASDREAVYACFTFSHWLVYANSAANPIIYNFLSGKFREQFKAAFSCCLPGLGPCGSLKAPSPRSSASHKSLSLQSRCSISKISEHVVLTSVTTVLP

[4] = Thermodynamic solubility of the compound in phosphate buffer at pH 7.4 by HPLC method; format: physicochemical; conditions: read-out: Therm_solubility
[5] = Cmax in Sprague-Dawley rat at 15 mg/kg, po; format: ADME, organism-based; parameters: dose 15 mg/kg, route oral; conditions: in vivo
[6] = Ratio of drug level in brain to plasma in Sprague-Dawley rat at 10 mg/kg, po at 4 hrs; format: ADME, organism-based; conditions: read-out: BPR
[7] = Tmax in Sprague-Dawley rat at 15 mg/kg, po; format: ADME, organism-based; conditions: in vivo
[8] = Plasma concentration in Sprague-Dawley rat at 10 mg/kg, po at 4 hrs; format: ADME, organism-based
[9] = test system: Brain; assay: Drug uptake in Sprague-Dawley rat brain at 10 mg/kg, po at 4 hrs; format: ADME, organism-based; conditions: in vivo
[10] = Plasma concentration in Sprague-Dawley rat at 10 mg/kg, po at 0.3 hrs; format: ADME, organism-based
[11] = AUC in Sprague-Dawley rat at 15 mg/kg, po; format: ADME, organism-based; conditions: in vivo
[12] = Clearance in Sprague-Dawley rat at 2 mg/kg, iv; format: ADME, organism-based; conditions: in vivo
[13] = Plasma concentration in Sprague-Dawley rat at 10 mg/kg, po at 1 hr; format: ADME, organism-based
[14] = test system: Brain; assay: Drug uptake in Sprague-Dawley rat brain at 10 mg/kg, po at 1 hr; format: ADME, organism-based; conditions: in vivo
[15] = Oral bioavailability in Sprague-Dawley rat at 15 mg/kg; format: ADME, organism-based; conditions: in vivo
[16] = Half life in Sprague-Dawley rat at 2 mg/kg, iv; format: ADME, organism-based; conditions: in vivo
[17] = test system: Brain; assay: Drug uptake in Sprague-Dawley rat brain at 10 mg/kg, po at 0.3 hrs; format: ADME, organism-based; conditions: in vivo
[18] = Ratio of drug level in brain to plasma in Sprague-Dawley rat at 10 mg/kg, po at 1 hr; format: ADME, organism-based; conditions: read-out: BPR
[19] = Ratio of drug level in brain to plasma in Sprague-Dawley rat at 10 mg/kg, po at 0.5 hrs; format: ADME, organism-based; conditions: read-out: BPR

Structure (SMILES): Cc1ccc(-n2nccn2)c(C(=O)N2C[C@@]3(F)CN(c4nc5ccccc5o4)C[C@@]3(F)C2)c1
- IC50 [1]: 575 nM
- IC50 [2]: > 30000 nM
- IC50 [3]: 908 nM

Structure (SMILES): Cc1ccc(-n2nccn2)c(C(=O)N2C[C@@H]3CN(c4nc5cc(Cl)ccc5o4)C[C@@H]3C2)c1
- solubility thermodynamic [4]: < 2 µM
- Cmax [5]: 2100 nM
- IC50 [1]: 206 nM
- IC50 [3]: 226 nM
- Kp at 4 h [6]: 0.27
- Tmax [7]: 25.2 min
- concentration at 4 h [8]: 409 nM
- Drug uptake [9]: 111 nmol/kg
- concentration at 0.3 h [10]: 3370 nM
- AUC [11]: 5.4 µM·h
- clearance [12]: 32 mL/min/kg
- concentration at 1 h [13]: 2500 nM
- Drug uptake [14]: 376 nmol/kg
- bioavailability [15]: 27%
- half-life [16]: 43.8 min
- Drug uptake [17]: 643 nmol/kg
- Kp at 1 h [18]: 0.15
- Kp at 0.5 h [19]: 0.19

Structure (SMILES): Cc1ccc(-n2nccn2)c(C(=O)N2C[C@H]3CN(Cc4nc5cc(Cl)ccc5o4)C[C@H]3C2)c1
- IC50 [1]: 1820 nM
- IC50 [3]: 3240 nM

Structure (SMILES): Cc1ccc(-n2nccn2)c(C(=O)N2C[C@@H]3CN(c4ncc5cc(F)ccc5n4)C[C@@H]3C2)c1
- solubility thermodynamic [4]: 2.6 µM (≈ 1.15 µg/mL)
- IC50 [1]: 108 nM
- IC50 [3]: 216 nM
- concentration at 4 h [8]: 24 nM
- Drug uptake ([9]; BLD = below limit of detection): Bld
- concentration at 0.3 h [10]: 567 nM
- concentration at 1 h [13]: 328 nM
- Drug uptake [14]: 43 nmol/kg
- Drug uptake [17]: 80 nmol/kg
- Kp at 1 h [18]: 0.13
- Kp at 0.5 h [19]: 0.14

Structure (SMILES): Cc1ccc(-n2nccn2)c(C(=O)N2C[C@@H]3CN(c4ncnc5ccccc45)C[C@@H]3C2)c1
- IC50 [1]: 1680 nM
- IC50 [3]: > 10000 nM

Structure (SMILES): Cc1ccc(-n2nccn2)c(C(=O)N2C[C@@H]3CN(c4nc5ccccc5n4C)C[C@@H]3C2)c1
- IC50 [1]: 775 nM
- IC50 [3]: 1640 nM

Structure (SMILES): O=C(c1cc(Cl)ccc1-n1nccn1)N1C[C@@H]2CN(c3nc4cc(Cl)ccc4o3)C[C@@H]2C1
- IC50 [1]: 1270 nM
- IC50 [3]: > 10000 nM

Structure (SMILES): Cc1ccc(-n2nccn2)c(C(=O)N2C[C@@H]3CN(c4nc5cc(F)ccc5o4)C[C@@H]3C2)c1
- solubility thermodynamic [4]: < 2 µM
- IC50 [1]: 131 nM
- IC50 [3]: 293 nM
- concentration at 4 h [8]: 77 nM
- Drug uptake ([9]; BLD = below limit of detection): Bld
- concentration at 0.3 h [10]: 1260 nM
- concentration at 1 h [13]: 859 nM
- Drug uptake [14]: 42 nmol/kg
- Drug uptake [17]: 74 nmol/kg
- Kp at 1 h [18]: 0.05
- Kp at 0.5 h [19]: 0.06

Structure (SMILES): O=C(c1cc(F)ccc1-n1nccn1)N1C[C@@H]2CN(c3nc4cc(Cl)ccc4o3)C[C@@H]2C1
- IC50 [1]: 791 nM
- IC50 [3]: 1960 nM

Structure (SMILES): Cc1ccc(-n2nccn2)c(C(=O)N2C[C@@H]3CN(c4nc5cc(C(F)(F)F)ccc5o4)C[C@@H]3C2)c1
- IC50 [1]: 508 nM
- IC50 [3]: 1780 nM

Structure (SMILES): O=C(c1cc(OC(F)(F)F)ccc1-n1nccn1)N1C[C@@H]2CN(c3nc4cc(Cl)ccc4o3)C[C@@H]2C1
- IC50 [1]: 1520 nM
- IC50 [3]: 502 nM

Structure (SMILES): COc1ccc2oc(N3C[C@H]4CN(C(=O)c5cc(C)ccc5-n5nccn5)C[C@H]4C3)nc2c1
- IC50 [1]: 311 nM
- IC50 [3]: 401 nM

Structure (SMILES): Cc1ccc(-n2nccn2)c(C(=O)N2CC3CCN(c4nc5cc(Cl)ccc5o4)C3C2)c1 (stereo not drawn)
- IC50 [1]: > 10000 nM
- IC50 [3]: > 10000 nM

Structure (SMILES): Cc1ccc(-n2nccn2)c(C(=O)N2CCC3CN(c4nc5cc(Cl)ccc5o4)CC32)c1 (stereo not drawn)
- IC50 [1]: 354 nM
- IC50 [3]: 2970 nM

Source: ChEMBL document CHEMBL3997829, “Discovery of novel substituted octahydropyrrolo[3,4-c]pyrroles as dual orexin receptor antagonists for insomnia treatment” (Bioorg Med Chem Lett, 2017)
